Strand notation (5' to 3'): a small letter for the sugar, then the base; units joined by * are phosphorothioate-linked, units joined directly phosphodiester-linked; [ ] holds rarer units or linkages, { } end groups; capitals alone tell only the bases. e = 2'-O-(2-methoxyethyl) (MOE); [5mC] = 5-methylcytosine; d = 2'-deoxy (DNA)

Results on 34 substances are retold here after US11840686B2, “Modulation of prekallikrein (PKK) expression” (Ionis Pharmaceuticals, Inc., priority 2013, dated 2023).

The data set deals with human PKK mRNA. Kind of data set: Antisense inhibition of human PKK mRNA in HepaRG cells, 5,000 nM (Example 2). It counts as cell-based. In a few lines: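 Chimeric MOE gapmers with full phosphorothioate backbones were tested once at 5,000 nM in electroporated HepaRG cells. After about 24 hours, quantitative PCR measured PKK mRNA relative to untreated control cells.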
Where [1] appears, read: HepaRG cells, electroporation, 5,000 nM antisense oligonucleotide, approx. 24 hours, primer probe set RTS3454, relative to untreated control cells, Table 12.
Where [2] appears, read: HepaRG cells, electroporation, 5,000 nM antisense oligonucleotide, approx. 24 hours, primer probe set RTS3454, relative to untreated control cells, Table 11.
Where [3] appears, read: human PKK mRNA in HepaRG cells, 5-10-5 gapmers, Table 14.
The mark [4] stands for this setting: Table 9 experiment, HepaRG cells, 20,000 cells per well, electroporation with 5,000 nM antisense oligonucleotide, approx. 24 hours, PKK mRNA by RT-PCR (RTS3454), relative to untreated control cells.
The mark [5] stands for this setting: Table 10 experiment, HepaRG cells, 20,000 cells per well, electroporation with 5,000 nM antisense oligonucleotide, approx. 24 hours, PKK mRNA by RT-PCR (RTS3454), relative to untreated control cells.
Setting [6] is: HepaRG cells, 5,000 nM antisense oligonucleotide, 5-10-5 gapmers, Table 17.
The mark [7] stands for this setting: human PKK mRNA, HepaRG cells, 5,000 nM antisense oligonucleotide, Table 18.
[8] abbreviates: human PKK mRNA, HepaRG cells, 5-10-5 motif oligonucleotides targeting SEQ ID NO: 1 and 10.
The mark [9] stands for this setting: Table 8, HepaRG cells, electroporation with 5,000 nM antisense oligonucleotide, approx. 24 hours, PKK mRNA by RT-PCR (RTS3454), relative to untreated control cells.

Regarding “546421 (eT*e[5mC]*eA*eA*eG*d[5mC]*dT*dG*dT*dT*d[5mC]*dT*dA*dA*dT*eG*eT*eG*eG*e[5mC]; antisense) [compound 546421]”, under setting [1], the “% inhibition” value is listed as 71%.
Consider “547512 (antisense eG*e[5mC]*eA*eG*eA*dT*dG*dA*dG*dG*dA*d[5mC]*d[5mC]*d[5mC]*d[5mC]*e[5mC]*e[5mC]*eA*eG*eG) [compound 547512]”, for which, under setting [2], the “% inhibition” value came to 74%.
“546874 (eA*eT*eA*eA*e[5mC]*dA*dA*dT*dA*dT*d[5mC]*dA*d[5mC]*dT*dG*eT*eA*e[5mC]*e[5mC]*eT; antisense) [compound 546874]”: the “% inhibition” value under setting [3] is recorded as 68%.
In the case of “546323 (antisense eG*eT*eG*e[5mC]*eT*dT*dG*dT*dG*dT*d[5mC]*dA*d[5mC]*d[5mC]*dT*eT*eT*eG*eG*eA) [compound 546323]”, the “% inhibition” value by setting is: under setting [4], 94%; under setting [5], 80%.
Take “547688 (antisense e[5mC]*eA*e[5mC]*eT*eG*dT*d[5mC]*d[5mC]*dT*dA*dT*dA*dA*d[5mC]*dT*eA*eT*eA*eT*e[5mC]) [compound 547688]”: for the setting “HepaRG cells, 5,000 nM antisense oligonucleotide, 5-10-5 gapmers, Table 16”, the “% inhibition” value came out at 47%.
As for “547762 (antisense eT*eG*eA*eA*eA*d[5mC]*dT*dG*dG*dG*d[5mC]*dA*dG*dT*d[5mC]*e[5mC]*eT*eT*e[5mC]*e[5mC]) [compound 547762]”, the “% inhibition” value under setting [6] worked out at 0%.
Same read-out and setting: the result for “547011 (eG*eG*e[5mC]*eA*eG*dG*dA*dT*dT*dG*dG*dT*dG*dG*dT*eG*eG*eA*eA*eT; antisense) [compound 547011]” reads 22%.
As to “548767 (antisense eT*eA*eT*e[5mC]*dA*d[5mC]*dT*dG*dT*d[5mC]*d[5mC]*dT*dA*eT*eA*eT*e[5mC]) [compound 548767]”, the “% inhibition” value under setting [7] was 59%.
Turning to “547023 (eG*eA*eT*eT*eG*dG*dT*dG*dG*d[5mC]*dG*dG*dG*dA*dT*e[5mC]*eG*eG*eT*eG; antisense) [compound 547023]”, under setting [6], the “% inhibition” value amounted to 91%.
“546309 (antisense e[5mC]*e[5mC]*e[5mC]*eT*eT*d[5mC]*dT*dG*dA*dG*dA*d[5mC]*dT*dT*dT*eA*eT*eA*eG*eT) [compound 546309]”: the “% inhibition” value under setting [4] was found to be 88% and the “% inhibition” value under setting [5] was 81%.
Consider “548711 (DNA e[5mC]*eT*eG*dT*dA*d[5mC]*dT*dA*dG*dT*dT*dT*d[5mC]*e[5mC]*eT*eA; antisense) [compound 548711]”, for which the “% inhibition” value (HepaRG cells, 5,000 nM antisense oligonucleotide, human PKK mRNA, Table 18) was 21%.
For the substance “546899 (e[5mC]*eT*eA*e[5mC]*e[5mC]*dT*dA*dT*dA*dA*d[5mC]*dT*d[5mC]*dT*dA*eA*e[5mC]*eA*eG*eT; antisense) [compound 546899]”, the “% inhibition” value under setting [8] stood at 27%.
As for “547329 (antisense eT*eT*eA*eT*eT*dT*dG*dA*dT*dG*dA*d[5mC]*d[5mC]*dA*d[5mC]*eA*eT*eT*eG*e[5mC]) [compound 547329]”, the “% inhibition” value (HepaRG cells, electroporation with 5,000 nM antisense oligonucleotide, approximately 24 hours, PKK mRNA by RT-PCR (RTS3454), relative to untreated control cells, Table 6 experiment) was determined as 24%.
Take “547650 (eG*eT*eA*e[5mC]*e[5mC]*dT*dA*dT*dA*dA*d[5mC]*dA*dG*dT*dA*eT*e[5mC]*eA*e[5mC]*eT; antisense) [compound 547650]”: the “% inhibition” value under setting [8] came out at 32%.
As to “547312 (antisense eA*eT*eG*eT*eA*d[5mC]*dT*dT*dT*dT*dG*dG*d[5mC]*dA*dG*eG*eG*eT*eT*e[5mC]) [compound 547312]”, the “% inhibition” value (HepaRG cells, electroporation with 5,000 nM antisense oligonucleotide, approximately 24 hours, PKK mRNA by RT-PCR (RTS3454), relative to untreated control cells, Table 5 experiment) is on record as 46%.
With “546683 (eT*e[5mC]*e[5mC]*eT*eA*dT*d[5mC]*d[5mC]*dG*dT*dG*dT*dT*d[5mC]*dA*eG*e[5mC]*eT*eG*eT; antisense) [compound 546683]”, under setting [1], the “% inhibition” value stood at 69%.
Turning to “547417 (eT*e[5mC]*e[5mC]*eT*eT*dA*d[5mC]*dA*dG*dT*d[5mC]*dT*dT*d[5mC]*dT*eG*eG*eG*eA*eG; antisense) [compound 547417]”, the “% inhibition” value under setting [9] is given as 68%.
As for “547021 (eT*eT*eG*eG*eT*dG*dG*d[5mC]*dG*dG*dG*dA*dT*d[5mC]*dG*eG*eT*eG*eG*eT; antisense) [compound 547021]”, under setting [6], the “% inhibition” value is reported as 57%.
Turning to “547734 (eG*eT*eA*eG*eG*dA*dT*dT*dG*dG*dT*dG*dG*dT*dG*eG*eG*eA*eT*eT; antisense) [compound 547734]”, under setting [6], the “% inhibition” value is 14%.
For the substance “547440 (antisense eT*e[5mC]*e[5mC]*eT*eA*dT*dG*dA*dG*dT*dG*dA*d[5mC]*d[5mC]*d[5mC]*eT*e[5mC]*e[5mC]*eA*e[5mC]) [compound 547440]”, under setting [9], the “% inhibition” value worked out at 67%.
Take “547495 (antisense eG*e[5mC]*eT*eG*eG*dT*dG*dA*d[5mC]*dT*dG*d[5mC]*dA*dT*d[5mC]*eT*eG*eA*eG*e[5mC]) [compound 547495]”: the “% inhibition” value under setting [2] was determined as 61%.
Regarding “546881 (eA*eG*eT*eT*eT*d[5mC]*d[5mC]*dT*dA*dT*dA*dA*d[5mC]*dA*dG*eT*eA*eT*e[5mC]*eA; antisense) [compound 546881]”, under setting [3], the “% inhibition” value is 49%.
Regarding “547376 (eG*eA*eA*eT*eG*dT*dA*dA*dA*dG*dA*dA*dG*dA*dG*eG*e[5mC]*eA*eG*eT; antisense) [compound 547376]”, under “Table 7, HepaRG cells, electroporation with 5,000 nM antisense oligonucleotide, approx. 24 hours, PKK mRNA by RT-PCR (RTS3454), relative to untreated control cells”, the “% inhibition” value was 43%.
“547676 (antisense e[5mC]*eT*eG*eT*e[5mC]*d[5mC]*dT*dA*dT*dA*dA*d[5mC]*dT*dA*dT*eA*eA*e[5mC]*eA*eA) [compound 547676]”: under setting [8], the “% inhibition” value came out at 41%.
As for “546378 (antisense eT*eT*eT*eG*e[5mC]*dA*dG*dA*dT*dG*dA*dG*dG*dA*d[5mC]*e[5mC]*e[5mC]*e[5mC]*e[5mC]*e[5mC]) [compound 546378]”, under setting [2], the “% inhibition” value is given as 79%.
For “548732 (DNA eA*e[5mC]*eT*eG*dT*dA*d[5mC]*dT*dA*dG*dT*dT*dT*d[5mC]*e[5mC]*eT*eA; antisense) [compound 548732]”, the “% inhibition” value under setting [7] is 36%.
Turning to “546263 (eG*eG*eA*eG*eT*dA*dA*dA*dG*dA*dA*dT*dA*dA*dG*eT*eG*eA*eA*eA; antisense) [compound 546263]”, the “% inhibition” value under setting [9] is listed as 0%.
As to “547546 (antisense e[5mC]*eA*eT*eA*e[5mC]*dT*d[5mC]*dG*d[5mC]*d[5mC]*dT*dT*dT*dG*dT*eG*eA*eT*eG*e[5mC]) [compound 547546]”, under setting [1], the “% inhibition” value turned out to be 11%.
As to “547726 (eG*e[5mC]*eA*eG*eG*dA*dT*dT*dG*dG*dT*dG*dG*dT*dG*eG*eA*eA*eT*eT; antisense) [compound 547726]”, the “% inhibition” value under setting [6] is 0%.
In the case of “546391 (eG*e[5mC]*eA*eT*eT*dG*dT*d[5mC]*dA*dG*d[5mC]*d[5mC]*d[5mC]*d[5mC]*dT*eG*eG*eT*eT*eA; antisense) [compound 546391]”, the “% inhibition” value under setting [2] came to 54%.
As to “546416 (e[5mC]*eT*eG*e[5mC]*eA*dG*dG*d[5mC]*dA*dA*dT*dA*dT*dT*dT*eT*eG*e[5mC]*eT*eT; antisense) [compound 546416]”, the “% inhibition” value under setting [1] amounted to 62%.
Turning to “548736 (DNA eT*eA*eT*e[5mC]*dA*d[5mC]*dT*dG*dT*dA*d[5mC]*dT*dA*dG*eT*eT*eT; antisense) [compound 548736]”, under setting [7], the “% inhibition” value was determined as 21%.
For the substance “546284 (antisense e[5mC]*eA*e[5mC]*eA*eA*dT*d[5mC]*dT*d[5mC]*dA*dA*dA*dG*dA*dG*eT*eA*eA*e[5mC]*e[5mC]) [compound 546284]”, the “% inhibition” value under setting [9] turned out to be 89%.
As to “547654 (eT*eA*eT*e[5mC]*eA*d[5mC]*dT*dG*dT*dA*d[5mC]*d[5mC]*dT*dA*dT*eA*eA*e[5mC]*eA*eG; antisense) [compound 547654]”, the “% inhibition” value under setting [8] turned out to be 53%.

The % inhibition is the share of the control response that was lost under treatment. A higher % inhibition goes with strong suppression.
